In paper PMC4596572, “Ligand Discovery for the Alanine-Serine-Cysteine Transporter (ASCT2, SLC1A5) from Homology Modeling and Virtual Screening” (PLoS Computational Biology, 2015):
Where two headings read alike, the source gives them in different places.

Key:
[1] = molecular target: T1, rat ASCT2 (Rattus norvegicus, UniProt D3ZJ25); test: Whole-cell patch-clamp recording of ASCT2-associated anion current in transfected HEK293 cells; type: cell-based; details: for Km: apparent Km for the active compounds from anion current dose response, called Ki in text for the inhibitors L-DOPS and γ-FBP; for Imax, maximum currents relative to 1 mM alanine: whole-cell anion current, membrane potential 0 mV, internal 130 mM NaSCN and 10 mM alanine, negative = outward current (inhibitor)
T1 construct: The coding region of the cDNA was subcloned into the EcoRI site of the pBK-CMV vector; expressed in transfected cells; host or cells: HEK293 (human embryonic kidney), transient transfection, pBK-CMV vector
T1 sequence (D3ZJ25 1-555): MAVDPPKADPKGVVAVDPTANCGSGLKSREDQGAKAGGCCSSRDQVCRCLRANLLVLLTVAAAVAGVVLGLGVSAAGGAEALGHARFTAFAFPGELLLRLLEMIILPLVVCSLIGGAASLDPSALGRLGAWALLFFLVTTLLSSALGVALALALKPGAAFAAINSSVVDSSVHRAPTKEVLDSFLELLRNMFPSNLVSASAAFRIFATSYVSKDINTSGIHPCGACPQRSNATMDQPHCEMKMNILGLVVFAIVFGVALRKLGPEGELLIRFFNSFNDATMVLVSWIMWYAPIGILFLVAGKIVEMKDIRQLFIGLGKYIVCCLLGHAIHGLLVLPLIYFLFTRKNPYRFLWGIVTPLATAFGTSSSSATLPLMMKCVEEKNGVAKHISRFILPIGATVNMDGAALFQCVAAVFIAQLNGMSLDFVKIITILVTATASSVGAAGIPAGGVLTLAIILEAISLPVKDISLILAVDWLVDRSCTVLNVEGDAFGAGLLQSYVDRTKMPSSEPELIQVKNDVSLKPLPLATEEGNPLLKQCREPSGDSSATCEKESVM
Text: We used transporter-mediated anion current as a measure of transport/inhibition activity […] We have previously shown that anion current is a measure of transport activity, due to the kinetic coupling of transport and anion flux, and this fact is also well established for the homologous glutamate transporters, which have a much more rigorously determined pharmacology. Anion current is activated when the transporter visits certain states in the transport cycle, such as the fully Na^+/substrate occupied state (substrate-induced anion conductance), or the Na^+-bound state (leak conductance). Thus, transported substrates induce anion current and non-transported inhibitors block the leak anion current. […] Functional characterization by patch clamping is a powerful approach when combined with virtual screening that prioritizes molecules from large libraries, but precludes screening of large amounts of compounds due to its labor-intensive nature.
cDNA coding for rat ASCT2 was kindly provided by S. Bröer. The coding region of the cDNA was subcloned into the EcoRI site of the pBK-CMV vector (Stratagene). The cDNA construct was used to transiently transfect human embryonic kidney cells (HEK293, ATCC No. CGL 1573) with leptrime reagent (Polyplus, Ilkrich, France). Transfection was performed as detailed in the supplier’s instructions. Electrophysiological recordings were performed 24–48 h after transfection.
ASCT2-associated whole-cell currents were recorded with an Adams & List EPC7 amplifier (HEKA, Lambrecht, Germany) using voltage-clamp conditions. Open-tip electrode resistances were 2–3 MΩ and the series resistance (R S) was 5–8 MΩ. R S was not compensated in the recordings, as compensation had no effect on the magnitude of the observed currents. The extracellular bath solution contained (in mM): 140 NaMES, 2 MgGluconate2, 2 CaGluconate2, and 10 HEPES (MES = methanesulfonic acid, pH 7.4 / NaOH). The pipette solution contained (in mM): 130 NaSCN, 2 MgCl2, 10 EGTA, 10 HEPES, and 10 L-alanine/cysteine (pH 7.3 / NaOH). Using this intracellular solution, the transporters operate in the Na^+/alanine exchange mode. Here, external alanine is exchanged with internal alanine in the absence of net transport. The exchange mode is associated with the activation of an uncoupled anion current, which was used as an indirect measure of transport activity. The currents were low pass filtered at 3 kHz (EPC7 built-in filter) and digitized with a digitizer board (Digidata 1200, Axon Instruments, Foster City, CA, USA) at a sampling rate of 10–50 kHz (controlled by software, Axon PClamp7). All experiments were performed at room temperature. Rapid solution exchange was essentially performed as described previously. Briefly, substrates and inhibitors were applied to the ASCT2-expressing HEK293 cells with a quartz tube (350 μm tube diameter) positioned at a distance of ≈0.5 mm to the cell. The linear flow rate of the solutions emerging from the opening of the tube was approximately 5–10 cm/s.

[2] = tested on: ASCT2 protein levels in C8161 cells; test: Western blotting of ASCT2 protein levels; type: cell-based, human; details: 5 mM, 48 hours
Procedure: To ensure these inhibitory effects were not due to changes in ASCT2 protein levels, we examined ASCT2 protein levels by Western blotting 48 hours after incubation with chloroalanine (5 mM), AOC (5 mM) or γ-FBP (5 mM) (Fig 8J). […] For example, γ-FBP is an inhibitor that deprives the cancer cells from nutrients and the activator Chloroalanine can potentially be further developed as a cytotoxic ligand.
Cells (5 × 10^5 per well) were seeded in 24 well plates, allowed to adhere overnight, and then incubated in the presence of 5 mM chloroalanine, AOC or γ-FBP for 48 hours. Cells were detached using Tryple and lysed in lysis buffer (50 μL; 20 mM Tris-HCl, 150 mM NaCl, 1% Triton X-100, 0.5% Na deoxycholate, 0.1% SDS) with protease inhibitor Cocktail III (Bioprocessing Biochemical, California). Protein was measured using micro-BCA method (Pierce) and loaded onto a 4–12% gel (Life Technologies), electrophoresed, and transferred to PVDF membrane. The membrane was blocked with 2.5% (w/v) BSA in PBS-Tween20, and incubated with primary (ASCT2, Cell Signaling; GAPDH, Abcam) and secondary antibodies. Secondary HRP-labeled antibodies (Millipore) were detected using chemiluminescence reagents (Pierce) on a Kodak imager (Kodak).

Km [1] [µM] | Imax, maximum currents relative to 1 mM alanine [1] | Ki ([1]; absence of alanine, read-out: apparent Ki in the absence of alanine) [µM] | Concentration down to which alanine activation is alleviated ([1]; alanine + compound) [µM] | Ki ([1]; alanine-induced currents (100 μM alanine), read-out: Ki in the presence of alanine) [µM] | Response relative to saturating [alanine] ([1]; outward current) | Structure (SMILES) | Anion current response / ligand character ([1]; whole-cell current, result in words) | ASCT2 protein levels [2]
87 ± 22 | -0.64 ± 0.13 | 87 ± 22 | ≥ 100 | 250 ± 75 | -0.64 ± 0.13 | O=C(O)C1CC(Cc2ccccc2F)CN1 (centres unmarked) [γ-FBP] |  | no change
220 ± 20 | 1.17 ± 0.13 |  |  |  |  | NC1(C(=O)O)COC1 |  | no change

Structure (SMILES) | Km [1] [µM] | Imax, maximum currents relative to 1 mM alanine [1] | Ki ([1]; absence of alanine, read-out: apparent Ki in the absence of alanine) [µM] | Concentration down to which alanine activation is alleviated ([1]; alanine + compound) [µM] | Ki ([1]; alanine-induced currents (100 μM alanine), read-out: Ki in the presence of alanine) [µM] | Response relative to saturating [alanine] ([1]; outward current) | Anion current response / ligand character ([1]; whole-cell current, result in words) | ASCT2 protein levels [2]
NC(CCl)C(=O)O (centres unmarked) [Chloroalanine] | 900 ± 120 | 1.28 ± 0.22 |  |  |  |  | activated inwardly-directed anion currents | reduced the levels of ASCT2 protein
